From patent US20250019387A1 (Frontier Medicines Corporation, priority 0001, published 2025)

Target: KRAS G12C and cRAF (Ras-binding domain) interaction (Homo sapiens (Human), UniProt P01116, C118S/C51S/C80L/G12C)
Experiment: Inhibition of KRAS G12C and cRAF binding (AlphaScreen)
Settings: GMPPNP-loaded KRAS G12C, 19-20 hours incubation with compound; read-out: IC50 (Inhibition of KRAS G12C and cRAF Binding)
Outline: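 IC50 values come from 4-parameter nonlinear regression of AlphaScreen signal (680 nm excitation, 570 nm emission). Compound plates sat 19-20 h at room temperature before RBD and donor/acceptor beads were added in Hepes pH 7.4 buffer with 150 mM NaCl, 5 mM MgCl2, 2% DMSO for 60-90 min; biotin-AviTag-GST replaced RBD to flag assay-technology interferers.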

Sequence of KRAS G12C and cRAF (Ras-binding domain) interaction (P01116 other isoform, or with tags, fused parts or gaps G12C/C51S/C80L/C118S): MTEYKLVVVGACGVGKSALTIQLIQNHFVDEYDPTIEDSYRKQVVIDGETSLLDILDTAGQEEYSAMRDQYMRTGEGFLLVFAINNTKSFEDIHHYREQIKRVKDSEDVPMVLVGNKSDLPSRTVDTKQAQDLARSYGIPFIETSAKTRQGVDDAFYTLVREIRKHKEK

Q: `C=CC(=O)N1CC[C@@H](N(C)c2nc(OC[C@]34CCCN3C[C@@H](F)C4)nc3c(F)c(-c4cccc5ccc(F)c(Cl)c45)ncc23)C1` [Example 151, 1-((R)-3-((7-(8-chloro-7-fluoronaphthalen-1-yl)-8-fluoro-2-(((2S,7aR)-2-fluorohexahydro-1H-pyrrolizin-7a-yl)methoxy)pyrido[4,3-d]pyrimidin-4-yl)(methyl)amino)pyrrolidin-1-yl)prop-2-en-1-one] was tested. Which IC50 did it give?
A: > 500 nM

Q: Which IC50 does the source give for `CN(CC1CN(C(=O)/C=C/c2nc(C3COC3)no2)C1)c1nc(OC[C@@]23CCCN2C[C@H](F)C3)nc2c(F)c(-c3cccc4cccc(Cl)c34)ncc12` [Example 152, (E)-1-(3-(((7-(8-chloronaphthalen-1-yl)-8-fluoro-2-(((2R,7aS)-2-fluorotetrahydro-1H-pyrrolizin-7a(5H)-yl)methoxy)pyrido[4,3-d]pyrimidin-4-yl)(methyl)amino)methyl)azetidin-1-yl)-3-(3-(oxetan-3-yl)-1,2,4-oxadiazol-5-yl)prop-2-en-1-one] here?
A: < 10 nM

Q: Which IC50 does the source give for `CN(CC1CN(C(=O)/C=C/c2nc(C3COC3)no2)C1)c1nc(OCC23CCCN2CCC3)nc2c(F)c(-c3cccc4cccc(Cl)c34)ncc12` [Example 153, (E)-1-(3-(((7-(8-chloronaphthalen-1-yl)-8-fluoro-2-((tetrahydro-1H-pyrrolizin-7a(5H)-yl)methoxy)pyrido[4,3-d]pyrimidin-4-yl)(methyl)amino)methyl)azetidin-1-yl)-3-(3-(oxetan-3-yl)-1,2,4-oxadiazol-5-yl)prop-2-en-1-one] here?
A: 10 to 100 nM

Q: How did the IC50 turn out when `CN(c1nc(OC[C@@]23CCCN2C[C@H](F)C3)nc2c1CCN(c1cccc3cccc(Cl)c13)C2)[C@@H]1CCN(C(=O)/C=C/c2nc(C3COC3)no2)C1` [Example 154, (E)-1-((R)-3-((7-(8-chloronaphthalen-1-yl)-2-(((2R,7aS)-2-fluorohexahydro-1H-pyrrolizin-7a-yl)methoxy)-5,6,7,8-tetrahydropyrido[3,4-d]pyrimidin-4-yl)(methyl)amino)pyrrolidin-1-yl)-3-(3-(oxetan-3-yl)-1,2,4-oxadiazol-5-yl)prop-2-en-1-one] was run?
A: < 10 nM

Q: `CN(c1nc(OCC23CCCN2CCC3)nc2c(F)c(-c3cccc4cccc(Cl)c34)ncc12)[C@@H]1CCN(C(=O)/C=C/c2nc(C3COC3)no2)C1` [Example 155, (R,E)-1-(3-((7-(8-chloronaphthalen-1-yl)-8-fluoro-2-((tetrahydro-1H-pyrrolizin-7a(5H)-yl)methoxy)pyrido[4,3-d]pyrimidin-4-yl)(methyl)amino)pyrrolidin-1-yl)-3-(3-(oxetan-3-yl)-1,2,4-oxadiazol-5-yl)prop-2-en-1-one] was tested. Which IC50 did it give?
A: < 10 nM

Q: `CN(c1nc(OCC23CCCN2CCC3)nc2c1CCN(c1cccc3cccc(Cl)c13)C2)[C@@H]1CCN(C(=O)/C=C/c2nc(C3COC3)no2)C1` [Example 156, (R,E)-1-(3-((7-(8-chloronaphthalen-1-yl)-2-((hexahydro-1H-pyrrolizin-7a-yl)methoxy)-5,6,7,8-tetrahydropyrido[3,4-d]pyrimidin-4-yl)(methyl)amino)pyrrolidin-1-yl)-3-(3-(oxetan-3-yl)-1,2,4-oxadiazol-5-yl)prop-2-en-1-one] was tested. Which IC50 did it give?
A: 10 to 100 nM

Q: For `CN(c1nc(OC[C@@]23CCCN2C[C@H](F)C3)nc2c(F)c(-c3cccc4cccc(Cl)c34)ncc12)[C@@H]1CCN(C(=O)/C=C/c2nc(C(F)F)no2)C1` [Example 157, (E)-1-((R)-3-((7-(8-chloronaphthalen-1-yl)-8-fluoro-2-(((2R,7aS)-2-fluorotetrahydro-1H-pyrrolizin-7a(5H)-yl)methoxy)pyrido[4,3-d]pyrimidin-4-yl)(methyl)amino)pyrrolidin-1-yl)-3-(3-(difluoromethyl)-1,2,4-oxadiazol-5-yl)prop-2-en-1-one], which IC50 is on record?
A: < 10 nM

Q: Which IC50 does the source give for `C=CC(=O)N1CC[C@@H](N(C)c2nc(OC[C@@]34CCCN3C[C@H](F)C4)nc3c(F)c(-c4cc(O)cc5ccccc45)ncc23)C1` [Example 158, 1-((R)-3-((8-fluoro-2-(((2R,7aS)-2-fluorohexahydro-1H-pyrrolizin-7a-yl)methoxy)-7-(3-hydroxynaphthalen-1-yl)pyrido[4,3-d]pyrimidin-4-yl)(methyl)amino)pyrrolidin-1-yl)prop-2-en-1-one] here?
A: < 10 nM

Q: How did the IC50 turn out when `CN(c1nc(OC[C@@]23CCCN2C[C@H](F)C3)nc2c(F)c(-c3cccc4cccc(Cl)c34)ncc12)[C@@H]1CCN(C(=O)/C=C/c2nc(C3COC3)no2)C1` [Example 159, (E)-1-((R)-3-((7-(8-chloronaphthalen-1-yl)-8-fluoro-2-(((2R,7aS)-2-fluorohexahydro-1H-pyrrolizin-7a-yl)methoxy)pyrido[4,3-d]pyrimidin-4-yl)(methyl)amino)pyrrolidin-1-yl)-3-(3-(oxetan-3-yl)-1,2,4-oxadiazol-5-yl)prop-2-en-1-one] was run?
A: < 10 nM

Q: With `Cc1noc(/C=C/C(=O)N2CC[C@@H](N(C)c3nc(OC[C@@]45CCCN4C[C@H](F)C5)nc4c3CCN(c3cccc5cccc(Cl)c35)C4)C2)n1` [Example 178, (E)-1-((R)-3-((7-(8-chloronaphthalen-1-yl)-2-(((2R,7aS)-2-fluorohexahydro-1H-pyrrolizin-7a-yl)methoxy)-5,6,7,8-tetrahydropyrido[3,4-d]pyrimidin-4-yl)(methyl)amino)pyrrolidin-1-yl)-3-(3-methyl-1,2,4-oxadiazol-5-yl)prop-2-en-1-one] as the molecule, how does the IC50 read?
A: < 10 nM

Q: `C=CC(=O)N1C[C@@H](F)[C@H](N(C)c2nc(OCC34CCCN3CCC4)nc3c(F)c(-c4cccc5ccc(F)c(Cl)c45)ncc23)C1` [Example 184, 1-((3R,4R)-3-((7-(8-chloro-7-fluoronaphthalen-1-yl)-8-fluoro-2-((hexahydro-1H-pyrrolizin-7a-yl)methoxy)pyrido[4,3-d]pyrimidin-4-yl)(methyl)amino)-4-fluoropyrrolidin-1-yl)prop-2-en-1-one] was tested. Which IC50 did it give?
A: 10 to 100 nM

Q: For `C=CC(=O)N1CC[C@@H](N(C)c2nc(OC[C@@]34CCCN3C[C@H](F)C4)nc3c(F)c(-c4cccc5ccc(F)c(CC)c45)ncc23)C1` [Example 185, 1-((R)-3-((7-(8-ethyl-7-fluoronaphthalen-1-yl)-8-fluoro-2-(((2R,7aS)-2-fluorotetrahydro-1H-pyrrolizin-7a(5H)-yl)methoxy)pyrido[4,3-d]pyrimidin-4-yl)(methyl)amino)pyrrolidin-1-yl)prop-2-en-1-one], which IC50 is on record?
A: 100 to 500 nM

Q: How did the IC50 turn out when `CN1CCC1C#CC(=O)N1CC[C@@H](N(C)c2nc(OC[C@@]34CCCN3C[C@H](F)C4)nc3c(F)c(-c4cccc5cccc(Cl)c45)ncc23)C1` (stereo partly drawn) [Example 186, 1-((R)-3-((7-(8-chloronaphthalen-1-yl)-8-fluoro-2-(((2R,7aS)-2-fluorohexahydro-1H-pyrrolizin-7a-yl)methoxy)pyrido[4,3-d]pyrimidin-4-yl)(methyl)amino)pyrrolidin-1-yl)-3-(1-methylazetidin-2-yl)prop-2-yn-1-one] was run?
A: < 10 nM

Q: `C#Cc1c(F)ccc2cccc(-c3ncc4c(N(C)[C@@H]5CCN(C(=O)C=C)C5)nc(OC[C@@]56CCCN5C[C@H](F)C6)nc4c3F)c12` [Example 187, 1-((R)-3-((7-(8-ethynyl-7-fluoronaphthalen-1-yl)-8-fluoro-2-(((2R,7aS)-2-fluorohexahydro-1H-pyrrolizin-7a-yl)methoxy)pyrido[4,3-d]pyrimidin-4-yl)(methyl)amino)pyrrolidin-1-yl)prop-2-en-1-one] was tested. Which IC50 did it give?
A: < 10 nM

Q: Which IC50 does the source give for `CN1CCOCC1C#CC(=O)N1CC[C@@H](N(C)c2nc(OC[C@@]34CCCN3C[C@H](F)C4)nc3c(F)c(-c4cccc5cccc(Cl)c45)ncc23)C1` (stereo partly drawn) [Example 188, 1-((R)-3-((7-(8-chloronaphthalen-1-yl)-8-fluoro-2-(((2R,7aS)-2-fluorohexahydro-1H-pyrrolizin-7a-yl)methoxy)pyrido[4,3-d]pyrimidin-4-yl)(methyl)amino)pyrrolidin-1-yl)-3-(4-methylmorpholin-3-yl)prop-2-yn-1-one] here?
A: 100 to 500 nM

Q: How did the IC50 turn out when `C=CC(=O)N1C[C@H](C)[C@@H](N(C)c2nc(OC[C@@]34CCCN3C[C@H](F)C4)nc3c(F)c(-c4cccc5cccc(Cl)c45)ncc23)C1` [Example 189, 1-((3R,4S)-3-((7-(8-chloronaphthalen-1-yl)-8-fluoro-2-(((2R,7aS)-2-fluorotetrahydro-1H-pyrrolizin-7a(5H)-yl)methoxy)pyrido[4,3-d]pyrimidin-4-yl)(methyl)amino)-4-methylpyrrolidin-1-yl)prop-2-en-1-one] was run?
A: 100 to 500 nM

Q: Which IC50 does the source give for `C=CC(=O)N1CC[C@@H](Nc2nc(OC[C@@]34CCCN3C[C@H](F)C4)nc3c(F)c(-c4cccc5cccc(Cl)c45)ncc23)[C@H]1C` [Example 190, 1-((2R,3R)-3-((7-(8-chloronaphthalen-1-yl)-8-fluoro-2-(((2R,7aS)-2-fluorotetrahydro-1H-pyrrolizin-7a(5H)-yl)methoxy)pyrido[4,3-d]pyrimidin-4-yl)amino)-2-methylpyrrolidin-1-yl)prop-2-en-1-one] here?
A: 100 to 500 nM

Q: Which IC50 does the source give for `C=CC(=O)N1CC[C@@H](N(C)c2nc(OC[C@@]34CCCN3C[C@H](F)C4)nc3c(F)c(-c4cccc5ccc(F)c(F)c45)ncc23)C1` [Example 192, 1-((R)-3-((7-(7,8-difluoronaphthalen-1-yl)-8-fluoro-2-(((2R,7aS)-2-fluorotetrahydro-1H-pyrrolizin-7a(5H)-yl)methoxy)pyrido[4,3-d]pyrimidin-4-yl)(methyl)amino)pyrrolidin-1-yl)prop-2-en-1-one] here?
A: 10 to 100 nM

Q: `CN(c1nc(OC[C@@]23CCCN2C[C@H](F)C3)nc2c(F)c(-c3cccc4cccc(Cl)c34)ncc12)[C@@H]1CCN(C(=O)C#C[C@]2(C)CCCN2C)C1` [Example 193, 1-((R)-3-((7-(8-chloronaphthalen-1-yl)-8-fluoro-2-(((2R,7aS)-2-fluorohexahydro-1H-pyrrolizin-7a-yl)methoxy)pyrido[4,3-d]pyrimidin-4-yl)(methyl)amino)pyrrolidin-1-yl)-3-((S)-1,2-dimethylpyrrolidin-2-yl)prop-2-yn-1-one] was tested. Which IC50 did it give?
A: 10 to 100 nM
